Measurements as given in US11161829B1, “Dihydrofuran chalcone compound and preparation method thereof” (SOUTH CHINA BOTANICAL GARDEN, CHINESE ACADEMY OF SCIENCES, priority 2018, dated 2021).

How the values were obtained:
[1] = DPPH radical scavenging assay; format: biochemical; details: 0.2 mM DPPH in ethanol, 30 minutes in dark at room temperature, absorbance at 517 nm; read-out: IC50 value against DPPH radicals
Procedure: DPPH is a stable free radical. When a free radical scavenger is present, light absorption of DPPH will be reduced when the single electron is scavenged, which allows to evaluate free radical scavenging ability of the substance and accordingly determine antioxidant ability thereof. The DPPH radical scavenging ability of the dihydrofuran chalcone was measured through the DPPH radical scavenging assay, so as to evaluate the antioxidant ability of the compound. The assay comprised the following steps: 1,1-Diphenyl-2-picrylhydrazyl (DPPH) was dissolved in absolute ethanol to obtain a solution with a concentration of 0.2 mM. The dihydrofuran chalcone was dissolved in absolute ethanol. 80 μL of the ethanol solution of dihydrofuran chalcone and 160 μL of the 0.2 mM DPPH ethanol solution were mixed and the mixture was placed in dark at room temperature for 30 minutes. Then, light absorbance at 517 nm was measured using a microplate reader (SpectraMax 190, Molecular Devices, USA), and Vc was employed as a positive control.

[2] = Solubility in methanol (structure identification); format: physicochemical

IC50 [1] [µM] | solubility in methanol [2] | SMILES
100 | – | O=C1O[C@H]([C@@H](O)CO)C(O)=C1O [Vc, vitamin C]
– | easily soluble | CC(C)(O)C1Cc2c(O)ccc(C(=O)/C=C/c3ccc(O)cc3O)c2O1 (centres unmarked) [compound 1, dihydrofuran chalcone]
